# Results from patent publication US9255088B2, “Premature-termination-codons readthrough compounds” (The Regents of the University of California, priority 2010, dated 2016).
# Entries after “also recorded” stand apart in the source; their conditions may differ.
# Columns and labels:
# [1] = system: ATMs1981 autophosphorylation in AT153LA cells (TGA); assay: Flow cytometry ATMs1981 autophosphorylation (FC-ATM) in AT153LA cells; assay type: cell-based, human; parameters: FC-ATM (Delta-FI, 30 μM): unit not given here; conditions: for FCATMs1981: summary of positive results; for FCATMs1981: key: the positive results on various assays are also summarized and labeled as '+'
# Experimental: FC-SMC1 assay was performed as recently described (Nahas et al., 2009). FC-ATM-Ser1981 assay was based on Honda's assay (Honda et al., 2009, Leukemia. 23:409-414) with modifications. In brief, cells were resuspended in PBS and radiated for 10 Gy. After 1 h, the cells were fixed and permeabilized using the FIX & PERM cell permeabilization kit (Invitrogen). The cells were then incubated with 1 μl of mouse ATM-Ser1981 antibody (Cell Signaling Technology) for 2 h at room temperature. Cells were washed and resuspended in 100 μl PBS with Alexa Fluor 488 anti-mouse IgG (Invitrogen) for 45 min. Cells were next washed and resuspended in PBS with 0.2% paraformaldehyde and analyzed using a FACSCalibur (BD).
# Studies on readthrough activity of RTC#13 derivatives as measured by FC-ATMS 1981 were performed according to the procedures provided in Example 1.
# These two series, 7 and 9, were tested for readthrough activity using an assay in which the ATM protein kinase activity was measured using a flow cytometry-based ATMs1981 autophosphorylation assay (FC-ATM) (Nahas, S. A; et al., Clin. Chem. 2009, 55, 463-72). […] An increased Delta-FI indicates the restoration of ATM kinase activity by a compound.
# (§1) These two series, 13 and 15, were again tested for readthrough activity using the assay in which the ATM protein kinase activity was measured by functional flow cytometry (FC-ATM) (Table 4 and FIG. 12). A second assay, irradiation (1R)-induced ATMs1981 nuclear foci formation (IRIF-ATM), was also used to confirm the readthrough activity of these compounds (Table 4 and FIG. 13). Table 3 summarizes the data for the analogues 13 and 15 (at 30 μM), in which the groups R, R′, and X were varied. More detailed data are reported in FIG. 5 (for FC-ATM assay), and in FIG. 6 (for IRIF-ATM assay). […] Thus, the pyrimidinedione unit serves as a good structural replacement for the 2-imino and 2-thioxo thiazolidin-4-one units.
# [2] = system: plasmid-TAT51: ATM region 5 fragment with nonsense (PTC) mutation c.5623C→T (TGA C); assay: PTT-ELISA readthrough assay, plasmid-TAT51 (TGA C); conditions: summary of positive results; plasmid not stated
# [3] = system: ATM-Ser1981 foci in AT153LA cells (TGA A); assay: Irradiation-induced ATM-Ser1981 foci (IRIF) in AT153LA cells; for IRIF (ATMs1981): key: the positive results on various assays are also summarized and labeled as '+'; assay type: cell-based, human; conditions: for IR-induced ATMs1981 foci formation, readthrough activity: A-T153LA cells (TGA), FIG. 13; for IRIF-ATM (%) (30 μM): Table 4, IR-induced ATMs1981 nuclear foci formation; for IRIF (ATMs1981): summary of positive results
# Experimental: To evaluate the function of RTC-induced ATM protein, we measured irradiation-induced foci (IRIF) formation of ATM-Ser1981 in the same ATI53LA cells (TGA A). […] The maximum IRIF induction achieved in A-T cells by 10 μM RTC#13 was ˜40% of wild-type level. As a positive readthrough control, 144 μM of G418 (100 μg/ml) was used to treat cells. Our previous studies had shown that, at this concentration, […] induced a maximum level of ATMs1981 IRIF (Lai et al., 2004).
# Immunostaining of nuclear foci of ATM-Ser1981 was performed as previously reported (Du et al., 2007). In brief, after being treated with compound for 4 d, cells were irradiated with 2 Gy and incubated at 37° C. for 30 min. The cells were dropped onto coverslips, fixed with 4% paraformaldehyde, and permeabilized. Coverslips were blocked for 1 h and incubated with mouse anti-ATM pSer1981 for 1 h (1:500; Rockland Immunochemicals, Inc). After a second blocking, cells were stained with FITC-conjugated anti-mouse IgG (1:150; Jackson ImmunoResearch Laboratories) for 1 h and mounted onto slides.
# Studies on IR-induced ATMs1981 foci formation by RTC#13 and derivatives 13a, 13b, 13d, 13e, 13f, 13g, 13h, 13i, 13j, and 13k in A-T153LA cells (TGA) were performed according to the procedures provided in Example 1.
# as §1
# [4] = system: dystrophin in mdx myotubes (TAA); assay: Dystrophin expression in mdx myotubes; assay type: cell-based, mouse; conditions: FIG. 21
# Experimental: To investigate the ability of RTC#13 and #14 to readthrough a PTC mutation in genes other than ATM, we used mdx myotubes. The mdx mouse has been widely used as a model for Duchenne muscular dystrophy. It carries a C to T transition in exon 23 of the dystrophin gene that creates a premature stop codon (TAA), resulting in an absence of dystrophin protein (Sicinski, et al., 1989, Science. 244:1578-1580). […] Muscle progenitor cells isolated from mdx mice were induced to differentiate for 24 h before addition of gentamicin or compounds RTC#13 and #14. Myotube cultures were exposed to compounds for 72 h and then analyzed for dystrophin by Western blotting. […] We next used immunoprecipitation to increase the sensitivity of the assay (FIG. 8). […] Results were consistent in multiple experiments performed.
# Cells were prepared and treated with RTCs for 3 d. Dystrophin proteins were detected by Western blot analysis using immunoprecipitation. Wild-type cells were used in the experiment to localize dystrophin protein. Gentamicin was used as a positive readthrough control. […] Results were consistent in three independent experiments.
# Cells were derived from limb muscle of neonatal mdx and C57 mice, as previously described (Bertoni and Rando, 2002, Hum. Gene Ther. 13:707-718). For growth, cells were plated on dishes coated with 5 µg/ml laminin (Invitrogen) and maintained in growth medium consisting of Ham's F10 nutrient mixture (Mediatech, Inc.) supplemented with 20% fetal bovine serum, penicillin, and streptomycin. Cell differentiation was induced by maintaining the cells in low serum medium (differentiation medium) consisting of DME supplemented with 2% horse serum, penicillin, and streptomycin. Myoblasts were plated in wells of 6-well dishes and were allowed to differentiate for 24 h before adding the compounds. Media was replaced every 24 h with fresh differentiation media containing the compounds. Cells were lysed 96 h after induction of differentiation (72 h after addition of the compounds). Total protein was determined and dystrophin immunoblot analysis was performed as previously described (Sicinski et al., 1989). 250 μg of total protein from each sample was immunoprecipitated using a monoclonal antibody directed toward the rod domain (MANDYS—8; 1:40; Sigma-Aldrich) of the dystrophin protein and detected by Western blotting (Barton-Davis et al., 1999, J. Clin. Invest. 104:375-381; Bertoni and Rando, 2002).
# Muscle cells were induced to differentiate to allow the formation of myotubes and synthesis of dystrophin mRNA. Compounds were added 24 hrs after induction of differentiation by direct addition into the media. The media was replaced every 24 hrs with fresh differentiation media containing the appropriate concentration of compounds. Myotubes were harvested 72 hrs later (96 hrs after induction of differentiation) and analyzed for dystrophin expression by immunoblot analysis (FIG. 14).
# Cultures were analyzed for dystrophin expression by immunohistochemistry.
# In the experiments shown in FIG. 21, the activity of two of the analogs of RTC#13 termed RTC#BZ6 and RTC#BZ16 was investigated in myotube cultures isolated from mdx mice. Compounds were added to the differentiation media 24 hrs after induction of differentiation and replaced every 24 hrs by changing the media with new fresh media containing the appropriate concentration of RTC#13, RTC#BZ6 or RTC#BZ16. […] No dystrophin expression was detected in cells treated with vehicle only at a final concentration of 10 μM.
# [5] = cited from earlier work
# [6] = Table 2, compounds 7, 30 µM, change in fluorescence intensity before and after ionizing radiation
# [7] = Table 4, compounds 13 and 15, 30 μM
Compound,"FC-ATM (Delta-FI, 30 μM) [1, 6]",PTT-ELISA [2],FCATMs1981 [1],other results
"O=C1NC(=S)S/C1=C\c1ccc(-c2ccccc2[N+](=O)[O-])o1 [Compound 7b, (Z)-5-((5-(2-nitrophenyl)furan-2-yl)methylene)-2-thioxothiazolidin-4-one]",negative,+,–,–
"O=C1NC(=S)S/C1=C\c1ccc(-c2ccccc2Cl)o1 [Compound 7m, (Z)-5-((5-(2-chlorophenyl)furan-2-yl)methylene)-2-thioxothiazolidin-4-one]",3.55,+,+,FC-ATM readthrough activity [1]: the best of this group
"O=C1NC(=S)S/C1=C\c1ccc(-c2cccc(F)c2)o1 [Compound 7q, (Z)-5-((5-(3-fluorophenyl)furan-2-yl)methylene)-2-thioxothiazolidin-4-one]",3.44,+,+,FC-ATM readthrough activity [1]: the best of this group
"N=C1NC(=O)/C(=C/c2ccc(-c3ccccc3)o2)S1 [Compound 7a, (Z)-2-imino-5-((5-phenylfuran-2-yl)methylene)thiazolidin-4-one]",negative,+,–,–
"N=C1NC(=O)/C(=C/c2c[nH]c(=O)[nH]c2=O)S1 [Compound 13k, (Z)-5-((2-imino-4-oxothiazolidin-5-ylidene)methyl)pyrimidine-2,4(1H,3H)-dione]",–,–,+,"IR-induced ATMs1981 foci formation, readthrough activity [3]: statistically significant readthrough activity; also recorded: good activity; IRIF-ATM (%) (30 μM) [3]: 17%; IRIF (ATMs1981) [3]: +; FC-ATM readthrough activity [1]: good activity; FC-ATM (Delta-FI, 30 μM) [1, 7]: 5.32; dystrophin expression in mdx myotube cultures [4]: levels of dystrophin expression comparable to that achieved using the parent compound RTC#13"
"N=C1NC(=O)/C(=C/c2ccc(-c3cccc(F)c3)o2)S1 [Compound 7j, (Z)-5-((5-(3-fluorophenyl)furan-2-yl)methylene)-2-iminothiazolidin-4-one]",negative,+,–,–
O=C(O)c1cccc(-c2noc(-c3ccccc3F)n2)c1 [PTC124],–,–,–,tolerability ([5]; phase-I clinical study in cystic fibrosis): generally well tolerated; readthrough activity compared with aminoglycosides ([5]; phase-I clinical study): more efficient readthrough activity than aminoglycosides
"N=C1NC(=O)/C(=C/c2ccc(-c3ccccc3Cl)o2)S1 [Compound 7f, (Z)-5-((5-(2-chlorophenyl)furan-2-yl)methylene)-2-iminothiazolidin-4-one]",negative,+,–,–
"Cc1cn(Cc2ccc(-c3ccccc3)o2)c(=O)[nH]c1=O [Compound 13f, 5-methyl-1-((5-phenylfuran-2-yl)methyl)pyrimidine-2,4(1H,3H)-dione]",–,–,+,"IR-induced ATMs1981 foci formation, readthrough activity [3]: statistically significant readthrough activity; IRIF-ATM (%) (30 μM) [3]: 22.75%; IRIF (ATMs1981) [3]: +; FC-ATM (Delta-FI, 30 μM) [1, 7]: 3.80"
"COc1ccccc1-c1ccc(/C=C2\SC(=N)NC2=O)o1 [Compound 7e, (Z)-2-imino-5-((5-(2-methoxyphenyl)furan-2-yl)methylene)thiazolidin-4-one]",negative,+,–,–
"N=c1ccn(Cc2ccc(-c3ccccc3[N+](=O)[O-])o2)c(=O)[nH]1 [Compound 15a, 4-imino-1-((5-(2-nitrophenyl)furan-2-yl)methyl)-3,4-dihydropyrimidin-2(1H)-one]",–,–,–,"IRIF-ATM (%) (30 μM) [3]: negative; FC-ATM (Delta-FI, 30 μM) [1, 7]: negative"
"N=C1NC(=O)/C(=C/c2ccc(-c3ccccc3C(F)(F)F)o2)S1 [Compound 7d, (Z)-2-imino-5-((5-(2-(trifluoromethyl)phenyl)furan-2-yl)methylene)thiazolidin-4-one]",negative,+,–,–
"O=C1NC(=S)S/C1=C\c1ccc(-c2ccccc2F)o1 [Compound 7n, (Z)-5-((5-(2-fluorophenyl)furan-2-yl)methylene)-2-thioxothiazolidin-4-one]",2.86,+,+,–
"O=c1ccn(Cc2ccc(-c3ccccc3[N+](=O)[O-])o2)c(=O)[nH]1 [Compound 13a, 1-((5-(2-nitrophenyl)furan-2-yl)methyl)pyrimidine-2,4(1H,3H)-dione]",–,–,+,"IR-induced ATMs1981 foci formation, readthrough activity [3]: statistically significant readthrough activity; IRIF-ATM (%) (30 μM) [3]: 10.67%; FC-ATM (Delta-FI, 30 μM) [1, 7]: 4.94; concentration giving the highest level of readthrough activity [4]: 5 µM; dystrophin expression in mdx myotube cultures [4]: effective"
